Like-named read-outs stand apart in the source and are kept apart here.
Tested on: primary CLL cells
Assay: tetrazolium-based cell viability assay (MTS) on primary CLL cells, Compound 1 with or without fludarabine
Design: species or system human
Settings: for IC50: Homo sapiens, CLL cell
Experimental: Fresh primary CLL cells from 42 CLL patients were purified using a Ficoll gradient. Purified cells were then added to wells (5×10^4 per well) containing 10% serum serum containing media and four serial dilutions of Compound 1 (ranging from 10 nM to 10 μM) with or without different concentrations of fludarabine (also ranging from 10 nM to 10 μM). […] The viability data were normalized to untreated controls and were used to calculate IC50 values. […] Comput. Biomed. Res. 199, 32(2): 145-160).

In the case of `NC(=O)c1cnc(N[C@@H]2CCCC[C@@H]2N)nc1Nc1cccc(-n2nccn2)c1` [Compound 1, 4-(3-(2H-1,2,3-triazol-2-yl)phenylamino)-2-((1R,2S)-2-aminocyclohexylamino)pyrimidine-5-carboxamide], the IC50 (read-out: median IC50 (cell viability)) is reported as 394 nM, the IC50 (three of seven samples with the 17p deletion that had significant activity, read-out: IC50 (cell viability)) is reported as 37.5 nM and the cell viability (samples from relapsed patients and with poor risk features (ZAP70 and/or CD38 expression, 11q deletion, unmutated IgVh)) is reported as “significant decreases in cell viability”.

— patent US20130252917A1, “COMBINATION THERAPY OF 4-(3-(2H-1,2,3-TRIAZO-2-YL)PHENYLAMINO)-2-((1R,2S)-2-AMINOCYCLOHEXYLAMINO)PYRIMIDINE-5-CARBOXAMIDE AND FLUDARABINE” (priority 2010, published 2013)
